How the values were obtained:
[1] = molecular target: Mitogen-activated protein kinase kinase kinase kinase 3 (Homo sapiens) (UniProt Q8IVH8); settings: Compound concentration 1000.0 nM
[2] = molecular target: Mitogen-activated protein kinase 13 (Homo sapiens) (UniProt O15264); settings: Compound concentration 1000.0 nM
[3] = molecular target: Serine/threonine-protein kinase 38 (Homo sapiens) (UniProt Q15208); settings: Compound concentration 1000.0 nM
[4] = molecular target: Rhodopsin kinase GRK7 (Homo sapiens) (UniProt Q8WTQ7); settings: Compound concentration 1000.0 nM
Chain of Rhodopsin kinase GRK7 (Homo sapiens) (Q8WTQ7 whole entry): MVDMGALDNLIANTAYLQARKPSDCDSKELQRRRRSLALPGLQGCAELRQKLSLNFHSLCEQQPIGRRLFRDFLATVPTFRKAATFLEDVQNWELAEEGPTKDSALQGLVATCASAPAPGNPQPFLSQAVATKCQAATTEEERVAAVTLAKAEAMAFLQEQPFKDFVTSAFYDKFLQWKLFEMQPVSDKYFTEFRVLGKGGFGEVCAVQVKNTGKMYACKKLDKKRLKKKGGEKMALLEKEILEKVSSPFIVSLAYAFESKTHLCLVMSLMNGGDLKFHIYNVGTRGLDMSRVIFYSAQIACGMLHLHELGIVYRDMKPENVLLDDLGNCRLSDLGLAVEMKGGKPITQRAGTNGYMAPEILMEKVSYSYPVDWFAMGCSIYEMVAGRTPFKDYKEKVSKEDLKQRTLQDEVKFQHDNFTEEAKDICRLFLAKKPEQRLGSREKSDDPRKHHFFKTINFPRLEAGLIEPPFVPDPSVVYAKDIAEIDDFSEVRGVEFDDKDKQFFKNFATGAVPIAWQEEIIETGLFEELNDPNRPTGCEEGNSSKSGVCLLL

[5] = molecular target: Vascular endothelial growth factor receptor 2 (Homo sapiens) (UniProt P35968); settings: Compound concentration 1000.0 nM
[6] = molecular target: Serine/threonine-protein kinase D3 (Homo sapiens) (UniProt O94806); settings: Compound concentration 1000.0 nM
[7] = molecular target: Tyrosine-protein kinase Mer (Homo sapiens) (UniProt Q12866); settings: Compound concentration 1000.0 nM
[8] = molecular target: Alpha-2C adrenergic receptor (Homo sapiens) (UniProt P18825); settings: Compound concentration 10.0 uM
Chain of Alpha-2C adrenergic receptor (Homo sapiens) (P18825 whole entry): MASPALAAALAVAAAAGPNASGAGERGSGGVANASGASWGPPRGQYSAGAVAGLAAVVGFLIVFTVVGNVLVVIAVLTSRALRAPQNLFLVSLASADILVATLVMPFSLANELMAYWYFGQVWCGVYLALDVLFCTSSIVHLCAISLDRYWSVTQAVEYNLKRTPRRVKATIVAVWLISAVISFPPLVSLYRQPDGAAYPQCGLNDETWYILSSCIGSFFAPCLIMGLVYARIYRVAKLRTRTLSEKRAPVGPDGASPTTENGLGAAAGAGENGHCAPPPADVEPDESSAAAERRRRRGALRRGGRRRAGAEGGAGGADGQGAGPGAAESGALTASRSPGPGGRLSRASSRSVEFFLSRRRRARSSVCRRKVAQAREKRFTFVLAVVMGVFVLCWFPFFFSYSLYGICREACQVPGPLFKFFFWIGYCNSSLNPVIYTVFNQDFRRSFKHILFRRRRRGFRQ

[9] = molecular target: Calcium/calmodulin-dependent protein kinase type 1G (Homo sapiens) (UniProt Q96NX5); settings: Compound concentration 1000.0 nM
[10] = molecular target: Mitogen-activated protein kinase 9 (Homo sapiens) (UniProt P45984); settings: Compound concentration 1000.0 nM
[11] = molecular target: Receptor tyrosine-protein kinase erbB-4 (Homo sapiens) (UniProt Q15303); settings: Compound concentration 1000.0 nM
Chain of Receptor tyrosine-protein kinase erbB-4 (Homo sapiens) (Q15303 whole entry): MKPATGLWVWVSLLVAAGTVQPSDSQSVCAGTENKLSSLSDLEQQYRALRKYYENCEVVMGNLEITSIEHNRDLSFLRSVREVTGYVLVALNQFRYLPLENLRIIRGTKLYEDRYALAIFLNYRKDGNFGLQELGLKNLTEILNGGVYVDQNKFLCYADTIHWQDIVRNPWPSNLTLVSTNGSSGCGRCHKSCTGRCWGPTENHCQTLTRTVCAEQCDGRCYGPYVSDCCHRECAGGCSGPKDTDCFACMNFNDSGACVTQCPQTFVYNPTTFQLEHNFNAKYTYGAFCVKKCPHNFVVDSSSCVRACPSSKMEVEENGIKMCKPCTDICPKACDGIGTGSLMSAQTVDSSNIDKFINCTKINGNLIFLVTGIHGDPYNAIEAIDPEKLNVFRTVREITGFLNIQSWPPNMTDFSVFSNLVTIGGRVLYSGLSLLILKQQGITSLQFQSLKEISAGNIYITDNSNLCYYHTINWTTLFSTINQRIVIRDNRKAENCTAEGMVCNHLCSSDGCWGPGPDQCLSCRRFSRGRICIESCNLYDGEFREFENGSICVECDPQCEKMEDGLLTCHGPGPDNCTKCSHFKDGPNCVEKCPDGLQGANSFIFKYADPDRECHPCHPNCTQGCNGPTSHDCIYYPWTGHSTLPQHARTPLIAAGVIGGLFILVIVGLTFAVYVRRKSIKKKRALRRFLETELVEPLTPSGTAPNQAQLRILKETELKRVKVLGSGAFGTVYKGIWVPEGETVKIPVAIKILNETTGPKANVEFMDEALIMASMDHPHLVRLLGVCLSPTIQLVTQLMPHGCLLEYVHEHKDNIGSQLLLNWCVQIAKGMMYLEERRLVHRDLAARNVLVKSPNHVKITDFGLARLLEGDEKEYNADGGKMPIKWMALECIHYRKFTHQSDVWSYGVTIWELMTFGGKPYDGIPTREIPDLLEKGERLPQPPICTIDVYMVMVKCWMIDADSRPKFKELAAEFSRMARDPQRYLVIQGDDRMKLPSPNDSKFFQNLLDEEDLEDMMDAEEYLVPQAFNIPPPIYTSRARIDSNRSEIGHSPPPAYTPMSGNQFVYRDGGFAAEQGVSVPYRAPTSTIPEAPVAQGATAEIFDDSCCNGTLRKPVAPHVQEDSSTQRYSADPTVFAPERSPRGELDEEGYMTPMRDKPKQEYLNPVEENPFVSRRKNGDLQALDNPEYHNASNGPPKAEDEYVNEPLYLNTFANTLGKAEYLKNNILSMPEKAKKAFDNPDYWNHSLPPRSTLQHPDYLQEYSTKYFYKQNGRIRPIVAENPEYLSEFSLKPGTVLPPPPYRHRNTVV

[12] = molecular target: Serine/threonine-protein kinase TNNI3K (Homo sapiens) (UniProt Q59H18); settings: Compound concentration 1000.0 nM
[13] = molecular target: Serine/threonine-protein kinase ULK2 (Homo sapiens) (UniProt Q8IYT8); settings: Compound concentration 1000.0 nM
[14] = molecular target: Tyrosine-protein kinase receptor TYRO3 (Homo sapiens) (UniProt Q06418); settings: Compound concentration 1000.0 nM
[15] = molecular target: Serine/threonine-protein kinase STK11 (Homo sapiens) (UniProt Q15831); settings: Compound concentration 1000.0 nM
[16] = molecular target: Ribosomal protein S6 kinase alpha-5 (Homo sapiens) (UniProt O75582); settings: Compound concentration 1000.0 nM
Chain of Ribosomal protein S6 kinase alpha-5 (Homo sapiens) (O75582 whole entry, looked up): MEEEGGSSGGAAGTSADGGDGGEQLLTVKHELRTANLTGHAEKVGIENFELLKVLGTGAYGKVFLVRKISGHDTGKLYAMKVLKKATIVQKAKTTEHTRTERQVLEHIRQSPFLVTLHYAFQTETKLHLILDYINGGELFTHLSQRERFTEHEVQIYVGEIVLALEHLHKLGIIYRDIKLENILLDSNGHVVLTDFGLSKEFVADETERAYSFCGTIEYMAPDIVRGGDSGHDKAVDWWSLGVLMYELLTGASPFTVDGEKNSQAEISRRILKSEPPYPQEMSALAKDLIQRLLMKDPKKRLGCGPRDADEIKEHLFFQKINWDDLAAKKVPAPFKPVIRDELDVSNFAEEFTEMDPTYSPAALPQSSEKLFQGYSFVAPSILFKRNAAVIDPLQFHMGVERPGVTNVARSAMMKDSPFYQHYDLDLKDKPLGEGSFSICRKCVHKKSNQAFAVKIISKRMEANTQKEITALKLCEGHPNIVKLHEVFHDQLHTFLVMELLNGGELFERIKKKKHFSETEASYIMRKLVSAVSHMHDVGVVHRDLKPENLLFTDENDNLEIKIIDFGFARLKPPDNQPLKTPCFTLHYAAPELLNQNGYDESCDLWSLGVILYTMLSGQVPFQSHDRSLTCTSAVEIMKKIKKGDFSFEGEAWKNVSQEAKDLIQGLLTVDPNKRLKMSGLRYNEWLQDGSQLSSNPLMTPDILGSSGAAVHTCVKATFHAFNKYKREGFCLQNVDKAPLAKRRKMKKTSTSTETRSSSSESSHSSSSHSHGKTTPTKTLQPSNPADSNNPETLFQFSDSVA

[17] = molecular target: 5-hydroxytryptamine receptor 2A (Homo sapiens) (UniProt P28223); settings: Compound concentration 10.0 uM
[18] = molecular target: cAMP-dependent protein kinase catalytic subunit alpha (Homo sapiens) (UniProt P17612); settings: Compound concentration 1000.0 nM
[19] = molecular target: Serine/threonine-protein kinase 16 (Homo sapiens) (UniProt O75716); settings: Compound concentration 1000.0 nM
[20] = molecular target: Phosphatidylinositol 4-phosphate 5-kinase type-1 gamma (Homo sapiens) (UniProt O60331); settings: Compound concentration 1000.0 nM
[21] = molecular target: Phosphorylase b kinase regulatory subunit alpha, liver isoform (Homo sapiens) (UniProt P46019); settings: Compound concentration 1000.0 nM
[22] = molecular target: Epithelial discoidin domain-containing receptor 1 (Homo sapiens) (UniProt Q08345); settings: Compound concentration 1000.0 nM
[23] = molecular target: Angiopoietin-1 receptor (Homo sapiens) (UniProt Q02763); settings: Compound concentration 1000.0 nM
[24] = molecular target: Phosphatidylinositol 5-phosphate 4-kinase type-2 gamma (Homo sapiens) (UniProt Q8TBX8); settings: Compound concentration 1000.0 nM
[25] = molecular target: Tyrosine-protein kinase Tec (Homo sapiens) (UniProt P42680); settings: Compound concentration 1000.0 nM
[26] = molecular target: Peripheral plasma membrane protein CASK (Homo sapiens) (UniProt O14936); settings: Compound concentration 1000.0 nM
Chain of Peripheral plasma membrane protein CASK (Homo sapiens) (O14936 whole entry): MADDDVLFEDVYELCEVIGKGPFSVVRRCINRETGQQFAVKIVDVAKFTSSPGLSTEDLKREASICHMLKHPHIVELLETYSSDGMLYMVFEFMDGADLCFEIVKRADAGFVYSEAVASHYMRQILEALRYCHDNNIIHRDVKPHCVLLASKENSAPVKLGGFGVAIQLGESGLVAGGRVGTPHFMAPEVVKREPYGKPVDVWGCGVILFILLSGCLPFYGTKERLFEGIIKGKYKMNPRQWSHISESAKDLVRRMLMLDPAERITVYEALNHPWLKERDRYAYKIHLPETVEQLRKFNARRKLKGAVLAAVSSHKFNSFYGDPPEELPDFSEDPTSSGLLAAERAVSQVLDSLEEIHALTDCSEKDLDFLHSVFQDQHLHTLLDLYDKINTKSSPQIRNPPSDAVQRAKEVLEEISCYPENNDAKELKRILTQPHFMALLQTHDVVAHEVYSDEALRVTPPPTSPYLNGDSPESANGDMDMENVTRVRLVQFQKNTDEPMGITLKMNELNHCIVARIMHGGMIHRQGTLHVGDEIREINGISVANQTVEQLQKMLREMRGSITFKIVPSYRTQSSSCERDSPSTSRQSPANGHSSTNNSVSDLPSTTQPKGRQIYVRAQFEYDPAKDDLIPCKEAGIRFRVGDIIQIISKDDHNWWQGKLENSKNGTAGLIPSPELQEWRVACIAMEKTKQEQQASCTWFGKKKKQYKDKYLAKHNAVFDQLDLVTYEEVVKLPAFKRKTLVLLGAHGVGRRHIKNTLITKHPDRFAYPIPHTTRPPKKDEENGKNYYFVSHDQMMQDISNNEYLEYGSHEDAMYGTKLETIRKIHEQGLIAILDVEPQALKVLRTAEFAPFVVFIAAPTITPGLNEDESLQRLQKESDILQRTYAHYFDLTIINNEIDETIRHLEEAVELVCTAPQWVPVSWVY

[27] = molecular target: Ephrin type-A receptor 5 (Homo sapiens) (UniProt P54756); settings: Compound concentration 1000.0 nM
[28] = molecular target: Maternal embryonic leucine zipper kinase (Homo sapiens) (UniProt Q14680); settings: Compound concentration 1000.0 nM
[29] = molecular target: T1, Muscarinic acetylcholine receptor M2 (Homo sapiens) (UniProt P08172); settings: Compound concentration 10.0 uM
T1 sequence (whole entry): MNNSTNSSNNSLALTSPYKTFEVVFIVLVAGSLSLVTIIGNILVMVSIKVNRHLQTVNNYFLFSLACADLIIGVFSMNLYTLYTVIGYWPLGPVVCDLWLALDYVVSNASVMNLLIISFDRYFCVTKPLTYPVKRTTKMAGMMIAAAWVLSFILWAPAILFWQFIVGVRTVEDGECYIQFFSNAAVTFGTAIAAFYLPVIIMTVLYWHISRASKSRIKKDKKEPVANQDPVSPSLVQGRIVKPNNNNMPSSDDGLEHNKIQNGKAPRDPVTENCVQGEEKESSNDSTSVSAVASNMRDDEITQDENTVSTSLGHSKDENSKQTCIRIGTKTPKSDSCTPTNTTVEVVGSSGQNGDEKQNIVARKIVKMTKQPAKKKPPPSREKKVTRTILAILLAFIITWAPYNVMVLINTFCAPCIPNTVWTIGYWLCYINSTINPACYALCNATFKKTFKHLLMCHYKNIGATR

[30] = molecular target: cGMP-dependent protein kinase 1 (Homo sapiens) (UniProt Q13976); settings: Compound concentration 1000.0 nM
[31] = molecular target: Serine/threonine-protein kinase 38-like (Homo sapiens) (UniProt Q9Y2H1); settings: Compound concentration 1000.0 nM
[32] = molecular target: Tyrosine-protein kinase ZAP-70 (Homo sapiens) (UniProt P43403); settings: Compound concentration 1000.0 nM
[33] = molecular target: Serine/threonine-protein kinase DCLK3 (Homo sapiens) (UniProt Q9C098); settings: Compound concentration 1000.0 nM
[34] = molecular target: Histamine H2 receptor (Homo sapiens) (UniProt P25021); settings: Compound concentration 10.0 uM
[35] = test system: Hepatocyte growth factor receptor (Homo sapiens), P08581 [Y1235D]; settings: Compound concentration 1000.0 nM
[36] = molecular target: Serine/threonine-protein kinase D1 (Homo sapiens) (UniProt Q15139); settings: Compound concentration 1000.0 nM
[37] = molecular target: SRSF protein kinase 1 (Homo sapiens) (UniProt Q96SB4); settings: Compound concentration 1000.0 nM
[38] = molecular target: Serine/threonine-protein kinase Nek9 (Homo sapiens) (UniProt Q8TD19); settings: Compound concentration 1000.0 nM
[39] = molecular target: Inhibitor of nuclear factor kappa-B kinase subunit beta (Homo sapiens) (UniProt O14920); settings: Compound concentration 1000.0 nM
Chain of Inhibitor of nuclear factor kappa-B kinase subunit beta (Homo sapiens) (O14920 whole entry): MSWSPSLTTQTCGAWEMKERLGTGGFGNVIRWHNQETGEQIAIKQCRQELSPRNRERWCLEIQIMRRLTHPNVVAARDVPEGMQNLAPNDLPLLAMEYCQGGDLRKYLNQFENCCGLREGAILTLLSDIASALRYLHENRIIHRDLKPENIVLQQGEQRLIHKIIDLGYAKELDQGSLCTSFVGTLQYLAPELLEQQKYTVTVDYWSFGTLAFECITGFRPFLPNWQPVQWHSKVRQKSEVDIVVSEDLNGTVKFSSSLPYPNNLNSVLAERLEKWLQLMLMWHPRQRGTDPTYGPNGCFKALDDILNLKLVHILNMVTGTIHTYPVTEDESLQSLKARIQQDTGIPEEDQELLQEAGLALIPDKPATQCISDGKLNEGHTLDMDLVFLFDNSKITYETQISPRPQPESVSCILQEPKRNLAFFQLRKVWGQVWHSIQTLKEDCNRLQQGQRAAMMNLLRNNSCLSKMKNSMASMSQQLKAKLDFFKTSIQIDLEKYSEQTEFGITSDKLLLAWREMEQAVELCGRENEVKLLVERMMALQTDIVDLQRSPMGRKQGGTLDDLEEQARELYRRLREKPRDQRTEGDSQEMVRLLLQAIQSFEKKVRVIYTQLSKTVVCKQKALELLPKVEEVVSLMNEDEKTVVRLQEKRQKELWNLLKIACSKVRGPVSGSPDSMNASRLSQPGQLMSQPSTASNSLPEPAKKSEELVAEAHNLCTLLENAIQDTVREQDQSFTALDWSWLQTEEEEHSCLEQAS

Compound: FC(F)(F)c1ccc2c(c1)nc(-c1cccnc1)n2C1CC1 [MSD-CYP11B2-Negative-control]
- residual activity [1]: 100%
- residual activity [2]: 100%
- residual activity [3]: 93%
- residual activity [4]: 81%
- residual activity [5]: 100%
- residual activity [6]: 100%
- residual activity [7]: 79%
- inhibition [8]: 13.3%
- residual activity [9]: 100%
- residual activity [10]: 100%
- residual activity [11]: 100%
- residual activity [12]: 100%
- residual activity [13]: 100%
- residual activity [14]: 100%
- residual activity [15]: 100%
- residual activity [16]: 100%
- inhibition [17]: 4.15%
- residual activity [18]: 100%
- residual activity [19]: 100%
- residual activity [20]: 85%
- residual activity [21]: 100%
- residual activity [22]: 100%
- residual activity [23]: 100%
- residual activity [24]: 100%
- residual activity [25]: 100%
- residual activity [26]: 100%
- residual activity [27]: 96%
- residual activity [28]: 94%
- inhibition [29]: 2.99%
- residual activity [30]: 87%
- residual activity [31]: 100%
- residual activity [32]: 100%
- residual activity [33]: 100%
- inhibition [34]: 6.72%
- residual activity [35]: 100%
- residual activity [36]: 100%
- residual activity [37]: 80%
- residual activity [38]: 100%
- residual activity [39]: 100%

Compound: CC(C)(O)c1cncc(-c2nc3ccc(F)cc3n2C2CC2)c1 [MSD-CYP11B2]
- residual activity [1]: 100%
- residual activity [2]: 100%
- residual activity [3]: 99%
- residual activity [4]: 86%
- residual activity [5]: 100%
- residual activity [6]: 100%
- residual activity [7]: 96%
- inhibition [8]: 70.1%
- residual activity [9]: 100%
- residual activity [10]: 100%
- residual activity [11]: 100%
- residual activity [12]: 100%
- residual activity [13]: 100%
- residual activity [14]: 100%
- residual activity [15]: 98%
- residual activity [16]: 100%
- inhibition [17]: -0.31%
- residual activity [18]: 100%
- residual activity [19]: 100%
- residual activity [20]: 100%
- residual activity [21]: 100%
- residual activity [22]: 100%
- residual activity [23]: 93%
- residual activity [24]: 100%
- residual activity [25]: 100%
- residual activity [26]: 89%
- residual activity [27]: 100%
- residual activity [28]: 100%
- inhibition [29]: -0.1%
- residual activity [30]: 78%
- residual activity [31]: 100%
- residual activity [32]: 100%
- residual activity [33]: 100%
- inhibition [34]: 1.75%
- residual activity [35]: 100%
- residual activity [36]: 100%
- residual activity [37]: 100%
- residual activity [38]: 100%
- residual activity [39]: 100%

Reference: ChEMBL document CHEMBL4507294, “Data for DCP probe MSD-CYP11B2” (2021)
